Measurements as given in PubChem BioAssay AID258 (DTP/NCI, 2004).
Where “and” joins values, the source holds several entries; their conditions need not be identical. Equal entries are not always repeated. Toxic doses and inconclusive results are not listed.

Test system: CD2F1 mice, L1210 leukemia sc, survival T/C
Test: NCI In Vivo Anticancer Drug Screen. Data for tumor model L1210 Leukemia (subcutaneous) in CD2F1 (CDF1) mice
Details: endpoint: median survival time, higher = longer survival
In short: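 T/C ratio: treated-group survival or tumor size over vehicle-control group measurement, in mice carrying transplanted tumors.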

O=C1NC(=O)C2C3C=CC(C12)C1C2C(=O)NC(=O)C2C31 (centres undefined)
T/C (dose: 3.0 mg/kg/injection, schedule: Q01DX005 (iv), vehicle: other): 108 % of control | T/C (dose: 6.0 mg/kg/injection, schedule: Q01DX005 (ip), vehicle: other): 111 % of control | T/C (dose: 6.0 mg/kg/injection, schedule: Q01DX005 (iv), vehicle: other): 104 % of control | T/C (dose: 6.0 mg/kg/injection, schedule: Q01DX005 (sc), vehicle: other): 105 % of control | T/C (dose: 12.0 mg/kg/injection, schedule: Q01DX005 (ip), vehicle: other): 104 % of control | T/C (dose: 12.0 mg/kg/injection, schedule: Q01DX005 (iv), vehicle: other): 104 % of control and 107 % of control | T/C (dose: 12.0 mg/kg/injection, schedule: Q01DX005 (sc), vehicle: other): 108 % of control | T/C (dose: 12.0 mg/kg/injection, schedule: Q01DX009 (ip), vehicle: other): 115 % of control | T/C (dose: 14.0 mg/kg/injection, schedule: Q01DX009 (ip), vehicle: water): 110 % of control | T/C (dose: 17.2 mg/kg/injection, schedule: Q01DX005 (iv), vehicle: other): 107 % of control | T/C (dose: 17.2 mg/kg/injection, schedule: Q01DX009 (ip), vehicle: other): 122 % of control | T/C (dose: 18.0 mg/kg/injection, schedule: Q01DX009 (ip), vehicle: clinical formulation): 121 % of control | T/C (dose: 24.5 mg/kg/injection, schedule: Q01DX005 (iv), vehicle: other): 110 % of control | T/C (dose: 25.0 mg/kg/injection, schedule: Q01DX005 (ip), vehicle: other): 113 % of control | T/C (dose: 25.0 mg/kg/injection, schedule: Q01DX005 (ip), vehicle: saline with Tween-80): 105 % of control | T/C (dose: 25.0 mg/kg/injection, schedule: Q01DX005 (sc), vehicle: other): 114 % of control | T/C (dose: 30.0 mg/kg/injection, schedule: Q01DX009 (ip), vehicle: clinical formulation): 150 % of control | T/C (dose: 38.9 mg/kg/injection, schedule: Q01DX009 (ip), vehicle: water): 203 % of control | T/C (dose: 50.0 mg/kg/injection, schedule: Q01DX005 (ip), vehicle: other): 164 % of control | T/C (dose: 50.0 mg/kg/injection, schedule: Q01DX005 (iv), vehicle: other): 160 % of control and 175 % of control | T/C (dose: 50.0 mg/kg/injection, schedule: Q01DX005 (oral), vehicle: other): 105 % of control | T/C (dose: 50.0 mg/kg/injection, schedule: Q01DX005 (sc), vehicle: other): 152 % of control | T/C (dose: 50.0 mg/kg/injection, schedule: Q01DX009 (ip), vehicle: clinical formulation): 192 % of control | T/C (dose: 50.0 mg/kg/injection, schedule: Q01DX009 (ip), vehicle: other): 166 % of control | T/C (dose: 64.8 mg/kg/injection, schedule: Q01DX009 (ip), vehicle: water): 291 % of control | T/C (dose: 71.4 mg/kg/injection, schedule: Q01DX005 (iv), vehicle: other): 247 % of control | T/C (dose: 71.4 mg/kg/injection, schedule: Q01DX009 (ip), vehicle: other): 250 % of control | T/C (dose: 83.3 mg/kg/injection, schedule: Q01DX009 (ip), vehicle: clinical formulation): 106 % of control | T/C (dose: 100.0 mg/kg/injection, schedule: Q01DX005 (ip), vehicle: saline with Tween-80): 204 % of control | T/C (dose: 100.0 mg/kg/injection, schedule: Q01DX005 (oral), vehicle: other): 108 % of control | T/C (dose: 100.0 mg/kg/injection, schedule: Q01DX005 (sc), vehicle: other): 89 % of control | T/C (dose: 200.0 mg/kg/injection, schedule: Q01DX005 (oral), vehicle: other): 113 % of control | T/C (dose: 252.0 mg/kg/injection, schedule: Q01DX009 (oral), vehicle: other): 171 % of control | T/C (dose: 378.0 mg/kg/injection, schedule: Q01DX009 (oral), vehicle: other): 162 % of control | T/C (dose: 400.0 mg/kg/injection, schedule: Q01DX005 (oral), vehicle: other): 108 % of control | T/C (dose: 800.0 mg/kg/injection, schedule: Q01DX005 (oral), vehicle: other): 229 % of control | T/C (dose: 850.0 mg/kg/injection, schedule: Q01DX009 (oral), vehicle: other): 182 % of control | T/C (dose: 1274.0 mg/kg/injection, schedule: Q01DX009 (oral), vehicle: other): 225 % of control

Nc1ncnc2c1ncn2C(C=O)OC(C=O)CO (centres undefined)
T/C (dose: 14.0 mg/kg/injection, schedule: Q01DX Z (sc), vehicle: carboxymethylcellulose (CMC)): 100 % of control | T/C (dose: 23.0 mg/kg/injection, schedule: Q01DX Z (sc), vehicle: carboxymethylcellulose (CMC)): 105 % of control | T/C (dose: 39.0 mg/kg/injection, schedule: Q01DX Z (sc), vehicle: carboxymethylcellulose (CMC)): 100 % of control | T/C (dose: 108.0 mg/kg/injection, schedule: Q01DX Z (sc), vehicle: carboxymethylcellulose (CMC)): 111 % of control | T/C (dose: 180.0 mg/kg/injection, schedule: Q01DX Z (sc), vehicle: carboxymethylcellulose (CMC)): 100 % of control

CCN(CC)c1ccc2cc3ccc(=[N+](CC)CC)cc-3oc2c1
T/C (dose: 0.5 mg/kg/injection, schedule: Q01DX Z (sc), vehicle: methylcellulose (MC)): 100 % of control | T/C (dose: 1.0 mg/kg/injection, schedule: Q01DX Z (sc), vehicle: methylcellulose (MC)): 100 % of control | T/C (dose: 2.0 mg/kg/injection, schedule: Q01DX Z (sc), vehicle: methylcellulose (MC)): 100 % of control | T/C (dose: 4.0 mg/kg/injection, schedule: Q01DX Z (sc), vehicle: methylcellulose (MC)): 100 % of control | T/C (dose: 8.0 mg/kg/injection, schedule: Q01DX Z (sc), vehicle: methylcellulose (MC)): 100 % of control

Nc1nc([Se]c2nc(N)nc3c2ncn3C2OC(CO)C(O)C2O)c2ncn(C3OC(CO)C(O)C3O)c2n1 (centres undefined)
T/C (dose: 12.5 mg/kg/injection, schedule: Q01DX005 (ip), vehicle: distilled water + Tween-80): 106 % of control | T/C (dose: 25.0 mg/kg/injection, schedule: Q01DX005 (ip), vehicle: distilled water + Tween-80): 115 % of control | T/C (dose: 36.0 mg/kg/injection, schedule: Q01DX009 (ip), vehicle: distilled water + Tween-80): 151 % of control | T/C (dose: 50.0 mg/kg/injection, schedule: Q01DX005 (ip), vehicle: distilled water + Tween-80): 122 % of control | T/C (dose: 60.0 mg/kg/injection, schedule: Q01DX009 (ip), vehicle: distilled water + Tween-80): 151 % of control and 168 % of control | T/C (dose: 100.0 mg/kg/injection, schedule: Q01DX009 (ip), vehicle: distilled water + Tween-80): 156 % of control and 164 % of control | T/C (dose: 167.0 mg/kg/injection, schedule: Q01DX009 (ip), vehicle: distilled water + Tween-80): 255 % of control and 297 % of control

CC(CN1CC(=O)NC(=O)C1)N1CC(=O)NC(=O)C1 (centres undefined)
T/C (dose: 1.25 mg/kg/injection, schedule: Q01DX009 (ip), vehicle: saline with Tween-80): 119 % of control | T/C (dose: 1.88 mg/kg/injection, schedule: Q01DX009 (sc), vehicle: saline with Tween-80): 113 % of control | T/C (dose: 2.5 mg/kg/injection, schedule: Q01DX009 (ip), vehicle: saline with Tween-80): 114 % of control | T/C (dose: 15.0 mg/kg/injection, schedule: Q01DX009 (ip), vehicle: saline with Tween-80): 159 % of control | T/C (dose: 15.0 mg/kg/injection, schedule: Q01DX009 (sc), vehicle: saline with Tween-80): 178 % of control | T/C (dose: 15.0 mg/kg/injection, schedule: Q01DX009 (sc), vehicle: saline): 124 % of control | T/C (dose: 20.0 mg/kg/injection, schedule: Q01DX009 (sc), vehicle: saline with Tween-80): 156 % of control | T/C (dose: 30.0 mg/kg/injection, schedule: Q01DX009 (ip), vehicle: saline with Tween-80): 178 % of control | T/C (dose: 35.0 mg/kg/injection, schedule: Q01DX009 (sc), vehicle: saline with Tween-80): 191 % of control | T/C (dose: 40.0 mg/kg/injection, schedule: Q01DX009 (ip), vehicle: saline with Tween-80): 165 % of control | T/C (dose: 40.0 mg/kg/injection, schedule: Q01DX009 (sc), vehicle: saline with Tween-80): 186 % of control | T/C (dose: 45.0 mg/kg/injection, schedule: Q01DX009 (sc), vehicle: saline with Tween-80): 190 % of control and 192 % of control | T/C (dose: 50.0 mg/kg/injection, schedule: Q01DX009 (sc), vehicle: saline with Tween-80): 195 % of control | T/C (dose: 60.0 mg/kg/injection, schedule: Q01DX009 (sc), vehicle: saline with Tween-80): 164 % of control | T/C (dose: 90.0 mg/kg/injection, schedule: Q01DX009 (ip), vehicle: saline with Tween-80): 123 % of control | T/C (dose: 100.0 mg/kg/injection, schedule: Q01DX009 (sc), vehicle: saline with Tween-80): 163 % of control | T/C (dose: 108.0 mg/kg/injection, schedule: Q04DX003 (sc), vehicle: Klucel (hydroxypropylcellulose) (HPC)): 119 % of control and 122 % of control | T/C (dose: 120.0 mg/kg/injection, schedule: Q01DX009 (ip), vehicle: saline with Tween-80): 158 % of control | T/C (dose: 120.0 mg/kg/injection, schedule: Q01DX009 (sc), vehicle: saline): 157 % of control | T/C (dose: 180.0 mg/kg/injection, schedule: Q04DX003 (sc), vehicle: Klucel (hydroxypropylcellulose) (HPC)): 122 % of control | T/C (dose: 240.0 mg/kg/injection, schedule: Q01DX009 (ip), vehicle: saline with Tween-80): 97 % of control | T/C (dose: 240.0 mg/kg/injection, schedule: Q01DX009 (sc), vehicle: saline with Tween-80): 86 % of control | T/C (dose: 300.0 mg/kg/injection, schedule: Q04DX003 (sc), vehicle: Klucel (hydroxypropylcellulose) (HPC)): 153 % of control | T/C (dose: 833.0 mg/kg/injection, schedule: Q04DX003 (sc), vehicle: Klucel (hydroxypropylcellulose) (HPC)): 111 % of control and 112 % of control
